Experimental data: patent US8722013B2, “Use of R(+)-alpha-lipoic acid for cryptogenic neuropathy” (Encrypta GmbH, priority 2007, dated 2014)
Structures can show the parent of a compound that is named as a salt.

Assays:
diabetic polyneuropathy = conditions: cited from earlier work
uremic neuropathy = conditions: cited from earlier work
cryptogenic neuropathy [1] = experiment: Case reports: patients with cryptogenic neuropathy treated with R-LA; format: in vivo, human
Procedure: A patient with cryptogenic neuropathy was treated with an agent according to the present invention. For that purpose a daily oral dose of 50 mg of R-LA (s.d.) was given over a time period of 8 weeks in a customary multivitamin presentation form. The disease is presented by a loss of sensory perception in the feet and a severe impairment of perspiration.
A patient with cryptogenic neuropathy was treated with an agent according to the present invention. For that purpose a daily oral dose of 50 mg of R-LA (s.d.) was given over a time period of 12 weeks.
A patient with cryptogenic neuropathy was treated with an agent according to the present invention. For that purpose 50 mg of R-LA (s.d.) in an oral multivitamin preparation together with γ-linolenic acid was given. The administration was at first 2 times a day for 6 weeks and then 1 time a day. The lost sensation in the tips of the fingers and toes (Semmes Weinstein monofilament) recovered after 4 weeks.
A patient with cryptogenic neuropathy was treated with an agent according to the present invention. For that purpose a daily oral dose of 100 mg of R-LA as Na salt was given over a time period of 8 weeks. The incontinence and also the control over the bladder were improved after 3 weeks.
A patient with cryptogenic neuropathy was treated with an agent according to the present invention. For that purpose at first a dose of 300 mg of R-LA (Na salt) was given 1 time a day over a time period of 2 weeks and then a dose of 100 mg was given 1 time a day over a time period of 6 weeks. Due to inconsequent taking of the dose on average the agent was only administered every second day. The dryness of the eyes has not changed during the first 3 weeks, but after 4 weeks the use of eye drops was reduced.
A patient with cryptogenic neuropathy was treated with an agent according to the present invention. For that purpose at first a daily oral dose of 100 mg of R-LA was given over a time period of one week and then a reduction to a dose of 50 mg for 6 weeks with continuous co-medication of gabapentin followed.
A patient with cryptogenic neuropathy was treated with an agent according to the present invention. For that purpose at first a daily oral dose of 100 mg of R-LA was given over a time period of two weeks. Then a reduction to a dose of 50 mg followed which was continued over 3 weeks. Subsequently the treatment was continued with the administration of 25 mg over further 3 weeks. […] Sharp pain which occurred occasionally was unchanged.
A patient with cryptogenic neuropathy was treated with an agent according to the present invention. For that purpose at first a daily oral dose of 100 mg of R-LA was given over a time period of four weeks. Then an anti-oxidative multivitamin preparation together with 50 mg of R-LA was given over 4 weeks.
A patient with cryptogenic neuropathy was treated with an agent according to the present invention. For that purpose at first a daily oral dose of 50 mg of R-LA was given over a time period of six weeks. Then an anti-oxidative multivitamin preparation without R-LA was given orally over 4 weeks. The patient suffered from numbness and the loss of sensory perception in the lower limbs. Due to a possible immunologic background ibuprofen was given as a long-term medication. […] The heart pains during stair climbing disappeared.
A patient with cryptogenic neuropathy was treated with an agent according to the present invention. For that purpose a daily dose of 300 mg of R-LA was given over a time period of four weeks together with a continued administration of a vitamin B-combination medication. […] Stomach pain and feeling of abdominal fullness were improved at the end of that period.
A patient with cryptogenic neuropathy was treated with an agent according to the present invention. For that purpose a daily oral dose of 400 mg of R-LA (K salt) was given over a time period of one week. […] 3 months later a formulation of 100 mg (Na salt) was given. […]

cryptogenic neuropathy [2] = conditions: in vivo; cited from earlier work
[3] = Example 11, 400 mg daily oral (K salt) over one week
[4] = Example 1, 50 mg daily oral (s.d.) in multivitamin presentation form, after 8 weeks
[5] = Example 9, 50 mg daily oral over six weeks, ibuprofen long-term medication

SMILES: O=C(O)CCCCC1CCSS1 (racemic) [rac-LA, 5-(1,2-dithiolan-3-yl)valeric acid]
- efficacy in controlled clinical trials (diabetic polyneuropathy; human, in vivo): negative
- efficacy in first short-time pilot study (ALADIN Study) (diabetic polyneuropathy; i.v. treatment, 3-week multicentre randomized controlled trial): verified the historic impressions of the efficacy
- neuropathic deficits (diabetic polyneuropathy; oral long-term therapy): appeared to deteriorate
- efficacy in pivotal placebo-controlled double-blind multicentre trials (ALADIN II, ALADIN III) (diabetic polyneuropathy; short-term use (i.v.) or long-term use (p.o.)): could not be reproduced
- result of first clinical trial (uremic neuropathy): negative results

SMILES: O=C(O)CCCC[C@@H]1CCSS1 [R-LA (K salt)]
- hyperhidrosis at the face (cryptogenic neuropathy [1]; [3]): not disappeared
- sensory perception in the lower limbs (cryptogenic neuropathy [1]; [3]): improved from severe to moderate

SMILES: O=C(O)CCCC[C@@H]1CCSS1 [R-LA (Na salt)]
- incontinence and control over the bladder (cryptogenic neuropathy [1]; Example 4, 100 mg daily oral as Na salt, after 3 weeks): improved
- chronic obstipation (cryptogenic neuropathy [1]; Example 4, 100 mg daily oral as Na salt, after 5 weeks): no longer a problem
- stool frequency (cryptogenic neuropathy [1]; Example 4, 100 mg daily oral as Na salt, after 5 weeks, 2 to 3 times a week before): 5 times a week
- dryness of the eyes (cryptogenic neuropathy [1]; Example 5, 300 mg 1 time a day for 2 weeks, then 100 mg for 6 weeks (on average taken every second day), first 3 weeks): not changed
- feeling of burning in the feet (cryptogenic neuropathy [1]; Example 5, 300 mg for 2 weeks, then 100 mg, after 3 weeks): reduced after 3 weeks (from severe to moderate)
- use of eye drops (cryptogenic neuropathy [1]; Example 5, 300 mg for 2 weeks, then 100 mg, after 4 weeks): reduced
- feeling of burning in the feet (cryptogenic neuropathy [1]; Example 5, during the weeks following week 3): unchanged

SMILES: O=C(O)CCCC[C@@H]1CCSS1 [R-LA, (R)-5-(1,2-dithiolan-3-yl)valeric acid]
- perspiration (cryptogenic neuropathy [1]; [4]): moderately improved
- sensory perception in the feet (cryptogenic neuropathy [1]; [4]): moderately improved
- feeling of burning and tingling in the feet and hands (cryptogenic neuropathy [1]; Example 2, 50 mg daily oral (s.d.) over 12 weeks): improved moderately
- symptoms after the termination of the treatment (cryptogenic neuropathy [1]; Example 2, after 12 weeks of 50 mg daily oral): became worse again
- lost sensation in the tips of the fingers and toes (Semmes Weinstein monofilament) (cryptogenic neuropathy [1]; Example 3, 50 mg in oral multivitamin preparation with γ-linolenic acid, 2 times a day, after 4 weeks): recovered
- function improvement on halving of the dose (cryptogenic neuropathy [1]; Example 3, 2 times a day for 6 weeks, then 1 time a day): not influenced
- neurological pain in the feet (cryptogenic neuropathy [1]; Example 6, 100 mg daily oral for one week, then 50 mg for 6 weeks, co-medication of gabapentin): unchanged
- perception of pain stimulus with a needle at the feet (cryptogenic neuropathy [1]; Example 6, 100 mg for one week, then 50 mg, gabapentin co-medication, after 3 weeks, not perceived at first): perceived moderately
- feeling of burning in the feet (cryptogenic neuropathy [1]; Example 7, 100 mg daily oral for two weeks, then 50 mg, after 3 weeks): improved from severe to moderate
- sharp pain which occurred occasionally (cryptogenic neuropathy [1]; Example 7, 100 mg for 2 weeks, 50 mg for 3 weeks, 25 mg for 3 weeks): unchanged
- feeling of burning in the feet (cryptogenic neuropathy [1]; Example 7, 100 mg for two weeks, then 50 mg for 3 weeks, after 5 weeks): disappeared completely
- feeling of burning in the feet (cryptogenic neuropathy [1]; Example 8, 100 mg daily oral, after 2 weeks): improved from severe to moderate
- feeling of burning in the feet (cryptogenic neuropathy [1]; Example 8, 100 mg for four weeks, then anti-oxidative multivitamin preparation with 50 mg, after 6 weeks): became worse again
- heart pains during stair climbing (cryptogenic neuropathy [1]; [5]): disappeared
- numbness (cryptogenic neuropathy [1]; [5]): unchanged
- sensory perception in the lower limbs (cryptogenic neuropathy [1]; Example 9, 50 mg daily oral, ibuprofen long-term medication, after 3 weeks, then stable): improved from severe to moderate
- sensory perception after termination of R-LA (cryptogenic neuropathy [1]; Example 9, 3 weeks after the termination of the administration): became worse again
- perception of pain stimulus at the feet by means of a sharp needle (cryptogenic neuropathy [1]; Example 10, 300 mg daily with vitamin B-combination medication, after 2 weeks): perceived again
- stomach pain and feeling of abdominal fullness (cryptogenic neuropathy [1]; Example 10, 300 mg daily with vitamin B-combination medication, at the end of four weeks): improved
- dryness at the feet (cryptogenic neuropathy [1]; Example 12, 100 mg twice a day, after 2 weeks): improved
- dryness at the hands (cryptogenic neuropathy [1]; Example 12, 100 mg twice a day, after 3 weeks): improved

SMILES: C[C@]12CCC(=O)C=C1CC[C@@H]1[C@@H]2C(=O)C[C@@]2(C)[C@H]1CC[C@]2(O)C(=O)CO [cortisone]
- outcome of therapy of cryptogenic neuropathy (cryptogenic neuropathy [2]): unsuccessful
